What was measured:
HIV integrase = HIV integrase (Human immunodeficiency virus type 1 group M subtype B, UniProt P04585); test: HIV integrase inhibitory activity assay (immunoplate, substrate DNA / target DNA, OD 405 nm); assay type: biochemical; conditions: read-out: Integrase inhibitory activity (IC50, ng/ml) (converted)
Experimental: The HIV integrase inhibitory activity was examined based on an assay method shown below.
(1) Preparation of DNA Solution
According to the same method as the method described in Test Example 1 of WO 2004/024693, a substrate DNA solution (2 pmol/μl) and a target DNA solution (5 pmol/μl) were prepared. […] Each sequence of a substrate DNA and a target DNA is as described in the same Test Example.
(2) Measurement of Inhibition Rate (IC50 Value)
Streptavidin (manufactured by Vector Laboratories) was dissolved in a 0. 1M carbonate buffer (composition: 90 mM Na2CO3, 10 mM NaHCO3 )to a concentration of 40 μg/ml. Each 50 μl of this solution was added to a well of an immunoplate (manufactured by NUNC), and this was allowed to stand at 4° C. overnight to perform adsorption. Then, each well was washed with, a phosphate buffer (composition: 13.7 mM NaCl, 0.27 mM KCl, 0.43 mM. Na2HPO4, 0.14 mM KH2PO4) two times, 300 μl of a phosphate buffer containing 1% skim milk was added, and blocking was performed for 30 minutes. […]
Each plate was incubated at 30° C. for 10 minutes, and the reaction solution was discarded, followed by washing with a phosphate buffer two times. […] Inhibition rate (%)=100[1−{(C abs.−NC abs.)/(PC abs.−NC abs.)}] • C abs.; absorbance of well of compound • NC abs.: absorbance of NC • PC abs.: absorbance of PC

Row | Structure (SMILES) | melting point [°C] | IC50 (HIV integrase) [nM]
1 | O=C(NCc1ccc(F)cc1)c1[nH]cc(C(=O)NCc2ccc(F)cc2)c(=O)c1O | 279 to 280 | –
2 | COC(=O)c1[nH]cc(C(=O)NCc2ccc(F)cc2)c(=O)c1O [Compound A-1a, Methyl 5-(4-fluorobenzylcarbamoyl)-3-hydroxy-4-oxo-1,4-dihydropyridine-2-carboxylate] | – | 20
3 | O=C(O)c1[nH]cc(C(=O)NCc2ccc(F)cc2)c(=O)c1O [Compound A-3] | – | 10.1

Source: US7550463B2, “Carbamoylpyridone derivatives having inhibitory activity against HIV integrase” (Shionogi & Co., Ltd., priority 2004, dated 2009)
